Experimental data from ChEMBL document CHEMBL2311460, “Synthesis and antiplasmodial activity of some 1-azabenzanthrone derivatives” (Bioorg Med Chem Lett, 2013).

Key:
[1] = Selectivity index, ratio of IC50 for human MRC5 cells to IC50 for chloroquine-resistant Plasmodium falciparum FCR-3; assay type: toxicity, cell-based; conditions: read-out: Ratio IC50
MRC5 = experiment: Cytotoxicity against human MRC5 cells; assay type: cell-based
Plasmodium falciparum = experiment: Antiplasmodial activity against chloroquine-resistant Plasmodium falciparum FCR-3 infected in human A positive erythrocytes by [3H]-hypoxanthine incorporation assay; assay type: functional, organism-based; conditions: FCR-3/Gambia

Row | Structure (SMILES) | selectivity ratio [1] | IC50 (MRC5) | IC50 (Plasmodium falciparum)
1 | COc1cc2c3c(nccc3c1[N+](=O)[O-])-c1ccccc1C2=O | 0.49 | 10.2 µM | 21 µM
2 | COc1cc2c3c(nccc3c1N)-c1ccccc1C2=O | 0.37 | 37 µM | 100 µM
3 | COc1cc2c3c(c1)C(=O)c1ccccc1C3=NCC2 | 32.4 | 81.3 µM | 2.5 µM
4 | COc1cc2c3c(nccc3c1)-c1ccccc1C2=O | > 15.6 | > 100 µM | 6.4 µM
5 | COc1cc2ccnc3c2c(c1[N+](=O)[O-])C(=O)c1ccccc1-3 | 1.42 | 80 µM | 56 µM
6 | COc1cc2ccnc3c2c(c1O)C(=O)c1ccccc1-3 | 1.27 | 65.1 µM | 51 µM
7 | COc1cc2c3c(nccc3c1Br)-c1ccccc1C2=O | > 1.99 | > 100 µM | 52 µM
8 | COc1cc2ccnc3c2c(c1OC)C(=O)c1ccccc1-3 | 0.68 | 50.5 µM | 74 µM
9 | O=C1c2ccccc2-c2ncc(Br)c3cccc1c23 | > 0.38 | > 100 µM | 260 µM
10 | COc1cc2c3c(ncc(Br)c3c1)-c1ccccc1C2=O | 0.13 | 28.9 µM | 220 µM
11 | O=C1c2ccccc2-c2nccc3cccc1c23 | 0.18 | 41.6 µM | 230 µM
12 | COc1cc2ccnc3c2c(c1N)C(=O)c1ccccc1-3 [LAKSHMININE] | 0.18 | 17.9 µM | 100 µM
